Consider one compound from patent US20200000752A1, “Method for Treating Epilepsy” (Vanderbilt University, priority 2016, published 2020).

Data set [1] has as its system Scn1a^+/− mice.
The next data set has as its target CYP 2C19 (Homo sapiens, UniProt P33261). Briefly: biochemical.
Data set [2] relates to mutant γ2(Q390X) subunit protein. The data set is described as follows: Western blot of mutant γ2(Q390X) subunit protein in HEK 293T cells. Format: cell-based. The note with it: 1 μm for 4 hours. The procedure: Total lysates from HEK 293T cells expressing wild-type α1β2γ2 (wt) or the mutant α1β2γ2(Q390X) (mut) receptors for 48 hrs from or from 1 year old wt or Gabrg2^+/Q390X (het) mouse brains were analyzed by western blot (FIGS. 10A and 10B).

A further data set deals with AKT, active caspase 3. Briefly: P-AKT immunoblot and active caspase 3 staining in cells and Gabrg2+/Q390X mice. The arrangement: species or system mouse. The procedure:
Total lysates from HEK 293T cells expressing the wild-type (wt) or the mutant α1β2γ2(Q390X) (mut) receptors (FIG. 17A) or from Gabrg2^+/Q390X mouse cortex (17B) were analyzed by SDS-PAGE. The membranes were immunoblotted with the phosphorylated AKT (P-AKT). FIG. 17C. Paraffin-embedded brain sections from 1 year old wild-type (wt) and heterozygous Gabrg2^+/Q390X (het) mice were stained with the active form of caspase 3 (green) and NeuN (red). The cell nuclei were stained with TO-PRO-3 (blue).
For orientation: In western blotting, separated proteins are transferred to a membrane and probed.

For data set [3], the system named is synaptic scaffold protein gephyrin. Briefly: Gephyrin staining in brain sections of Gabrg2+/Q390X mice. The note with it: 0.3 mg/kg for 14 days. Format: in vivo, mouse. An excerpt:
Synaptosomes from mouse forebrains were isolated by subcellular fractionation^7. The samples were then fractionated by SDS-PAGE and immunoblotted by rabbit polyclonal anti-γ2 subunit antibody and synaptic scaffold proteins including gephyrin, collybistin, synaptogamin 1 and neuroligin II. The γ2 subunit protein and synaptic scaffold proteins were reduced in the Gabrg2^+/Q390X (het) mice. (FIG. 18A). […] The sections were then stained with rabbit anti-γ2 subunit (green) and mouse monoclonal anti-gephyrin (red) antibodies. The nuclei were stained with TO-PRO-3. (FIG. 18B). The raw fluorescence values of gephyrin was measured by ImageJ. […] (FIG. 18C).

Data set [4] in a line: Tolerability of repeated daily IP dosing in mice. Format: in vivo.
Data set [5] deals with GABAA receptor α1 and γ2 subunits. Briefly: Surface and total GABAA receptor subunit expression in Gabrg2+/Q390X mice. Type of data set: in vivo, mouse. The procedure:
As shown in FIG. 14A upper panel, the surface proteins (FIG. 14A) from the live mouse brain slices were biotinylated and analyzed by SDS-PAGE and immunoblotted with anti-γ2 or anti-al subunit antibody. In the lower panel, the protein from total lysates of cortex was analyzed by SDS-PAGE and immunoblotted with anti-γ2 subunit antibody. LC is the loading control GAPDH in the blots. FIG. 14B charts the protein IDVs of surface wild-type γ2 or al subunits (upper panel) or total level wild-type γ2 subunits (lower panel) were normalized to its loading control and then to that in untreated wild-type mice which was arbitrarily taken as 1.

Data set [6] has as its system GABAA receptor α1 subunit. The data set is described as follows: GABAAR α1 subunit expression by high-throughput flow cytometry in HEK 293T cells. Type of data set: cell-based, human. As to the method:
The neuronal viability was determined with membrane integrity by trypan blue exclusion method^12. The mean survival was determined by counting eight randomly selected, non-overlapping fields with each containing approximately 10-20 neurons (viable+nonviable) (n=4 different cultures). GABAAR expression was determined by the high-throughput flow cytometry. HEK 293T cells were transfected with human α1, β2 and γ2 subunit cDNAs at 1:1:1 ratio for 48 hours. The α1 subunit was chosen as readout. The anti-α1 antibody was directly conjugated with Alexa 488 (data are mean±SEM, n=4). The healthy population was gated.
HEK 293T cells were transfected with wt γ2 or γ2(Q390X) subunits in combination with al and […] subunits at 1:1:1 cDNA ratio for 48 hrs. […] The cells were either unpermeabilized for surface staining (FIG. 11A, 11C) or permeabilized for total staining (FIG. 11B, 11D). al subunits were probed with mouse anti-α1 subunit antibody conjugated with Alexa 647. The relative al subunit fluorescence intensity (FI) was normalized to the wild-type without celastrol treatment.
(In general: Flow cytometry measures light scatter and fluorescence of single cells or particles in a stream.)

A further data set relates to GABAA receptor subunits. The data set is described as follows: Surface GABAA receptor subunit expression in Scn1a+/- mice. Format: in vivo, mouse. The note with it: 0.3 mg/kg IP for 14 days, cortex and thalamus. As to the method: The biotinylated surface proteins from either cortex (FIG. 15A) or thalamus (FIG. 15B) were analyzed by SDS-PAGE and immunoblotted with anti-GABAA receptor al subunit antibody. The protein IDVs of al subunits were normalized to its loading control and then to that in either cortex (cor) or thalamus (tha) in untreated wild-type mice (n==4) (FIGS. 15C and 15D). […] In FIGS. 15E and 15G, MJ stands for myoclonic jerks with behavioral correlation while GTCS for generalized tonic clonic seizures. The number of myoclonic jerks (MJ) and generalized tonic clonic seizures (GTCS) is the total number over 24 hrs. In G, mice were from the same litter, n=2 for each genotype.

The test system of data set [7] is Scn1a^+/− mice. Briefly: PTZ-induced seizures in Scn1a+/- mice after 14 days treatment. Type of data set: in vivo, mouse. Particulars: 0.3 mg/kg IP 14 days; PTZ 50 mg/kg IP.
Data set [8] has as its system epilepsy mouse models, AppSWE/PsenIdE9 mice. Briefly: PTZ seizure severity (Racine scale) in different epilepsy mouse models and AppSWE/PsenIdE9 mice. Format: in vivo. The note with it: 0.3 mg/kg IP daily×14 days; PTZ 50 mg/kg IP; n=5 per group. From the text: In this regard, an asterisk stands for the mutant protein aggregation in the neurons in related mouse models.

A short description of data set [9]: Brain and plasma concentration of celastrol in mice (IP, oral gavage). An excerpt:
For chronic dosing, samples were collected 2 hrs after drug administration.
Blood samples for drug bioanalysis will be collected in EDTA plasma tubes, immediately centrifuged, and the plasma fraction frozen at −80 C until analysis. Whole brains will also be frozen until analysis. […] Study samples, standards, and quality control samples will be precipitated with acetonitrile containing an internal standard, centrifuging the samples, and then injecting the supernatant onto a reverse phase LC/MS/MS system. Assay performance will be checked with retention time, peak shape, and quality control samples. The free drug concentration from animal studies will be calculated by multiplying the in vitro plasma free fraction (funbound) by the determined plasma concentrations. […] GABAA receptor subunits, AKT and neuronal survival signaling molecules, heat shock protein and synaptic scaffold proteins will be the focus.

A value given as a limit tells only on which side of the number the result lay.

Chain of CYP 2C19 (P33261 whole entry): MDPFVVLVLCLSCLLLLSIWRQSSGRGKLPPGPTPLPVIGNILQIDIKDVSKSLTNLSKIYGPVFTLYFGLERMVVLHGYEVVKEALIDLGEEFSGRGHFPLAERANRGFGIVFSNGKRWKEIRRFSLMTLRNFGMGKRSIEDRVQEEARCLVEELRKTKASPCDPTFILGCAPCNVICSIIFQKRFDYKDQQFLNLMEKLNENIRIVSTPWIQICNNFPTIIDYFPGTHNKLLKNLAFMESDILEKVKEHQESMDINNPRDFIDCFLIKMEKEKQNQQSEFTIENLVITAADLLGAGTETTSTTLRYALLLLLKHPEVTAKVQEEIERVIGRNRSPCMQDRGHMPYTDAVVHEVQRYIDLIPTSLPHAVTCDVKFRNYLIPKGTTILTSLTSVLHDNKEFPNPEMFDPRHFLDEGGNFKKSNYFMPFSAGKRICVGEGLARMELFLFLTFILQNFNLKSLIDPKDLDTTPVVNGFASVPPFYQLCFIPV

`CC1=C(O)C(=O)C=C2C1=CC=C1[C@@]2(C)CC[C@@]2(C)[C@@H]3C[C@](C)(C(=O)O)CC[C@]3(C)CC[C@]12C` [Celastrol, 3-Hydroxy-9β,13α-dimethyl-2-oxo-24,25,26-trinoroleana-1(10),3,5,7-tetraen-29-oic acid]: the “Number SWDs” value with Scn1a^+/− mice [1] (SWDs over 1 sec, 30 min after PTZ 50 mg/kg, n=2, celastrol 0.3 mg/kg intermittent (8th day of drug holiday), diazepam 0.3 mg/kg, stiripentol 150 mg/kg, saline 21) came to 2. Besides, the “efficacy in reducing seizure severity versus comparators” value in the data set with Scn1a^+/− mice [1] (chronic intermittent dosing 0.3 mg/kg IP) is recorded as “Better Efficacy in Reducing Seizure Severity than Diazepam or Stiripentol”. For the same compound, the IC50 (commonly the concentration that inhibits the measured activity by half) on CYP 2C19 was greater than 10 µM. The “mutant γ2(Q390X) subunit protein” value in data set [2] was “reduced”. Further, the “active caspase 3” value with AKT, active caspase 3 (0.3 mg/kg IP 2 weeks) is reported as “Reducing Active Caspase 3”. Also, the “AKT (P-AKT)” value in the data set on AKT, active caspase 3 (0.3 mg/kg IP 2 weeks in mice, HEK 293T cells) is reported as “Activating AKT”. For the same compound, the gephyrin puncta result in data set [3] was “increased gephyrin puncta”. Further, the adverse signs result in [4] (3 and 6 mg/kg IP daily, Gabrg2^+/Q390X mice) is “lethargy, unkempt fur”; in [4] (IP 3 mg/kg daily for 5 days, starting at day 4), “lethargy, unkempt fur and weight loss”. For the same compound, the tolerability entry in data set [4] (IP 0.3, 0.6 and 1.5 mg/kg daily for 7 days, C57BL/6J mice) is “tolerated well”. Besides, the “adverse effect at doses other than 3 and 6 mg/kg” value in [4] (IP daily 2 weeks or oral gavage 14 days) is “no adverse effect”. In data set [5] (0.3 mg/kg IP for 14 days, n=4 mice), the “surface and total α1 and γ2 subunits” value is “increase of both the surface and total α1 and γ2 subunits were greater in the mutant mice than in the wildtype”. Also, the “increase of surface γ2 subunits compared with mutant mice treated with vehicle” value in data set [5] (0.3 mg/kg, ip) is 40-50%. Moreover, the cell death entry in data set [6] (HEK 293T dishes with 2 and 4 μm) is listed as “Cell death was observed”. The “surface α1 subunits” value in data set [6] (HEK 293T, α1β2γ2, 0-8 μm for 4 hours) was “concentration dependently increased”. Also, the “surface GABAA receptor subunit expression” value in the data set with GABAA receptor subunits is listed as “Increased”. In addition, the “seizure threshold and seizures after PTZ” value in the data set on Scn1a^+/− mice [7] is “increased seizure threshold and decreased seizures”. Further, the seizure severity result in data set [8] was “reduced seizure severity”. Moreover, the “celastrol concentration in the mouse brain” value in [9] (level with good efficacy) is reported as 120-150 nm. Further, the partition ratio (Kp) (commonly the ratio of the level in a tissue or fluid to that in plasma or blood) at 24 h in data set [9] (mouse, brain, intraperitoneal, 0.3 mg/kg) was greater than 1.2. Moreover, the concentration at 2 h in [9] (mouse, brain, po, 3 mg/kg) is 121 nM.
